Source: patent US8067435B2, “Nitrogen-containing heterocyclic compounds, their preparation and their use as antibacterial drugs” (AstraZeneca AB, priority 2008, dated 2011)
Converted amounts (≈) assume the structure as drawn.

System: Pseudomonas aeruginosa (1771 Strain of the wild type)
Assay: Activity in vitro, method of dilutions in a liquid medium (MIC)
Assay type: cell-based
Settings: Pseudomonas aeruginosa 1771 wild type, liquid medium dilution, 24 hrs incubation at 37° C.; for MIC: read-out: MIC (μg/mL) 24 h (P, aerug, 1771)
Method: Activity in vitro, method of dilutions in a liquid medium: A series of tubes is prepared in which the same amount of sterile nutritive medium is distributed, increasing amounts of the product to be studied are distributed in each tube, and each tube is then sown with a bacterial strain. After incubation for 24 hrs in the oven at 37° C., inhibition of growth is appreciated by trans-illumination, which allows determination of the minimum inhibitory concentrations (MICs) expressed in μg/ml.
Thus tests are carried out with the products of Examples 1 to 8 in comparison with products of Examples 7, 9, 11 and 45 of application WO 04/052891. […] The activity difference on Pseudomonas aeruginosa between the products of the invention and the closest products from the prior art is located according to the products in a range from 16 to more than 500.
Activity on Pseudomonas aeruginosa (1771 Strain of the wild type)

C[C@@H](O)[C@H]1C(=O)N2C(C(=O)O)=C(SCCN=CN)C[C@H]12 [IMP, Imipenem, reference compound]
MIC: 1 µg/mL (≈ 3.34 µM)

NC[C@@H]1c2nn(-c3ccccn3)cc2[C@H]2CN1C(=O)N2OS(=O)(=O)O.O=C([O-])C(F)(F)F.[Na+] (relative stereo) [Ex 6, Sodium trifluoroacetate salt of trans 8-(aminomethyl)-2-(2-pyridinyl)-4,8-dihydro-5-(sulfooxy)-4,7-methano-7H-pyrazolo[3,4-e][1,3]diazepin-6(5H)-one]
MIC (μg/mL) 24 h (P, aerug, 1771): 8 µg/mL

NC[C@@H]1c2nn(CC(=O)O)cc2[C@H]2CN1C(=O)N2OS(=O)(=O)O.O=C([O-])C(F)(F)F.[Na+] (relative stereo) [Ex 7, Sodium trifluoroacetate salt of trans-8-(aminomethyl)-5,6-dihydro-6-oxo-5-(sulfooxy)-4H-4,7-methanopyrazolo[3,4-e][1,3]diazepin-2(8H)-acetic acid]
MIC (μg/mL) 24 h (P, aerug, 1771): 4 µg/mL

CC(C)(O/N=C(\C(=O)N[C@@H]1C(=O)N2C(C(=O)[O-])=C(C[n+]3ccccc3)CS[C@H]12)c1csc(N)n1)C(=O)O [CAZ, Ceftazidime, reference compound]
MIC: 1 µg/mL (≈ 1.83 µM)

NC[C@@H]1c2nn(C(N)=O)cc2[C@H]2CN1C(=O)N2OS(=O)(=O)O.O=C([O-])C(F)(F)F.[Na+] (relative stereo) [Ex 1, Sodium trifluoroacetate salt of trans 8-(aminomethyl)-2-carbamoyle-4,8-dihydro-5-(sulfooxy)-4,7-methano-7H-pyrazolo[3,4-e][1,3]diazepin-6(5H)-one]
MIC (μg/mL) 24 h (P, aerug, 1771): 0.25 µg/mL

CN(C)C(=O)n1cc2c(n1)[C@@H](CN)N1C[C@H]2N(OS(=O)(=O)O)C1=O.O=C([O-])C(F)(F)F.[Na+] (relative stereo) [Ex 2, Sodium trifluoroacetate salt of trans 8-(aminomethyl)-2-dimethylcarbamoyle-4,8-dihydro-5-(sulfooxy)-4,7-methano-7H-pyrazolo[3,4-e][1,3]diazepin-6(5H)-one]
MIC (μg/mL) 24 h (P, aerug, 1771): 2 µg/mL

NC[C@@H]1c2nn(CC(N)=O)cc2[C@H]2CN1C(=O)N2OS(=O)(=O)O.O=C([O-])C(F)(F)F.[Na+] (relative stereo) [Ex 8, Sodium trifluoroacetate salt of trans-8-(aminomethyl)-5,6-dihydro-6-oxo-5-(sulfooxy)-4H-4,7-methanopyrazolo[3,4-e][1,3]diazepin-2(8H)-acetamide]
MIC (μg/mL) 24 h (P, aerug, 1771): 0.5 µg/mL

NCCn1cc2c(n1)[C@@H](CN)N1C[C@H]2N(OS(=O)(=O)O)C1=O.O=C([O-])C(F)(F)F.[Na+] (relative stereo) [Ex 5, Sodium trifluoroacetate salt of trans 8-(aminomethyl)-2-(2-amino-ethyl)-4,8-dihydro-5-(sulfooxy)-4,7-methano-7H-pyrazolo[3,4-e][1,3]diazepin-6(5H)-one]
MIC (μg/mL) 24 h (P, aerug, 1771): 0.25 µg/mL

CNC(=O)n1cc2c(n1)[C@@H](CN)N1C[C@H]2N(OS(=O)(=O)O)C1=O.O=C([O-])C(F)(F)F.[Na+] (relative stereo) [Ex 3, Sodium trifluoroacetate salt of trans 8-(aminomethyl)-2-methylcarbamoyl-4,8-dihydro-5-(sulfooxy)-4,7-methano-7H-pyrazolo[3,4-e][1,3]diazepin-6(5H)-one]
MIC (μg/mL) 24 h (P, aerug, 1771): 2 µg/mL

NCCn1ncc2c1[C@@H](CN)N1C[C@H]2N(OS(=O)(=O)O)C1=O.O=C([O-])C(F)(F)F.[Na+] (relative stereo) [Ex 4, Sodium trifluoroacetate salt of trans 8-(aminomethyl)-1-(2-amino-ethyl)-4,8-dihydro-5-(sulfooxy)-4,7-methano-7H-pyrazolo[3,4-e][1,3]diazepin-6(5H)-one]
MIC (μg/mL) 24 h (P, aerug, 1771): 0.25 µg/mL
